Measurements published in patent US4393178A, “Fast crystallizing polyester compositions” (priority 1979, dated 1983).
Several values for one entry are separate records, joined by “and”; a condition that tells them apart may be missing. Equal values may be shown once. Read-outs that look alike come from different tables or passages of the source.

Experiments:
[1] = ΔT = Tc(cooling) - Tn(heating), DSC; format: physicochemical; conditions: 1% salt in PET, 2-roll mill 270 °C 5 min; 10 °C/minute
Method: An alternative method for assessing the effectiveness of nucleation of an additive is to compare the difference between the value of the crystallisation peak on cooling (Tc) with that on heating (Tn) for a composition containing an ionisable salt. The value obtained from this comparison, Tc(cooling) -Tn(heating) is termed ΔT. […] Samples of polyester together with 1% of the salt under test were mixed in a 2-roll mill at 270° C. for 5 minutes. The sample produced was pressed into 2 mm thick sheets at 270° C. for 3 minutes and then cooled to room temperature. 10 mg of the sample was placed in a capsule and rapidly heated to 290° C. After maintaining this temperature for 1 minute the capsule was quenched in water. The crystallisation peak temperatures on heating (Tn) and cooling (Tc) were determined using heating and cooling rates of 10° C./minute on a Perkin Elmer DSC 2 machine.

[2] = Solubility parameter δ of the acid
[3] = cited from earlier work
[4] = Degradation constant K (melt degradation performance); format: physicochemical; set-up: unit not given here; conditions: 1% salt in PET, 2-roll mill 270 °C 5 min; molten state 290 °C
Method: The melt degradation performance is a measure of the extent of degradation under molten conditions. A convenient method of quantifying the performance is by measuring the "K value". A method for determining this value in the molten state using an Instron Capillary rheometer is given in a paper by J. Devaux et al in Makromol.
This method is carried out on samples prepared by reacting the salt with the polyester on a 2 roll-mill at a temperature above the melting point of the polyester for 5 minutes and then pressing the product obtained into a 2 mm thick sheet using the same temperature for 3 minutes before cooling to room temperature. The method is described for polyethylene terephthalate but can be readily adapted for other polyesters.
For polyethylene terephthalate the K value in the presence of salt should be less than 60.

[5] = Half-crystallisation time (t1/2), isothermal DSC; format: physicochemical
Method: A DSC 2 Perkin Elmer scanning calorimeter was used.
10 mg of the sample of polymer material are placed in a capsule and introduced into the apparatus, wherein the sample is quickly heated to a temperature of 290° C. at which it is maintained during 1 minute.
The molten polymer material is then very quickly cooled by means of liquid air (at a rate of 320° C. per minute) until the crystallisation temperature is reached.
The crystallisation isotherm is registered on a temperature-time graph and the peak appearing on the registered isotherm is taken as the half-crystallisation time (t1/2).

[6] = Crystallisation peak temperature on heating (Tn), DSC; format: physicochemical; conditions: for Tn(composition)-Tn(polyester): PET I.V. 0.73 + 1% salt, 2-roll mill 300 °C 2 min, 10 °C/minute
Method: In one such DSC technique the crystallisation peak temperature difference, Tn(composition)--Tn(polyester) is determined by measuring the crystallisation peak temperatures on heating for the composition in comparison with the polyester of the composition not containing the ionisable salt. The detailed procedure is as follows. Compositions were prepared from the polyester and the additive by mixing on a 2-roll mill at 300° C. for 2 minutes. The sample was taken from the mill and pressed into a film in a compression moulding machine. 10 mg samples of the composition were placed in a capsule, rapidly heated to 290° C. and maintained at that temperature for 1 minute. The capsule was then dropped into water to quench the polymer and prevent crystallisation. The sample was then placed in a Perkin Elmer DSC 2 machine and heated at a rate of 10° C./minute until reaching a temperature of 290° C. The crystallisation peak temperature observed on this heating cycle is recorded and compared with the value for the polyester not containing the additive.
Samples of polyethylene terephthalate (I.V. =0.73) containing 1% of the salts listed in Table 2 were prepared by compounding at 300° C. on a 2-roll mill for 2 minutes. The samples were evaluated to determine Tn(composition-Tn(polyester), the total number of end groups, the number of carboxylate groups and the number of hydroxyl and carboxyl groups.
The salts listed in Table 3 were deposited from solution on the surface of polyethylene terephthalate chip to give a concentration of 1% by weight of salt. The product was dried under vcuum at 96° C. for 3 hours. The compositions were pressed into film using a temperature of 280° C. for 1 minute. The DSC measurements were made after quenching from the melt to prevent crystallisation and using a heating rate of 16° C./minute.
1% by weight of the sodium salt of saccharin was deposited on the surface of granules of a polyethylene terephthalate homopolymer of I.V. =0.73 by evaporating an aqueous solution of the salt from the granules by drying at 96° C. under vacuum for 3 hours. The granules obtained were compression moulded into film by pressing at 280° C. for 60 second. The film was used for measurements of Tn at a heating rate of 16° C./minute.
The effect of the salts listed in Table 4 was determined by taking granules of a polymer of poly(ethylene terephthalate) homopolymer having an intrinsic viscosity of 0.73 and evaporating a solution of the salt in methanol or water from the surface of the granules by drying at 96° C. under vacuum for 3 hours. The proportions of polymer and solution used were such as to give a concentration of 1% of salt by weight of the final dry composition. The granules obtained were compression-moulded into film at 280° C. for various periods of time. The film was used for measurement of Tn as hereinbefore described.
Two samples of polyethylene terephthalate chip (I.V. =0.73) were coated from solution with 1% of the sodium salt of o-hydroxybenzoic acid and the disodium salt of the same acid respectively. After drying for 3 hours in a vacuum oven at 95° C. films were prepared by pressing the products for 1 minute at 280° C.

[7] = End group determination; format: physicochemical; conditions: PET I.V. 0.73 + 1% salt, 2-roll mill 300 °C 2 min
Method: The numbers of hydroxyl and carboxyl groups were also determined according to the procedure given in this paper.
[…] The samples were evaluated to determine Tn(composition-Tn(polyester), the total number of end groups, the number of carboxylate groups and the number of hydroxyl and carboxyl groups.

[8] = acid from which the salt is derived, in water
[9] = 110 °C, 1% salt in PET, 2-roll mill 270 °C 5 min, after melting 1 minute at 290 °C
[10] = 120 °C, 1% salt in PET, 2-roll mill 270 °C 5 min, after melting 1 minute at 290 °C

| SMILES | ΔT [1] [°C] | δ × pKH.sbsb.2O ([2]; product for the acid) | pKH.sbsb.2O [3, 8] | K [4] | t1/2 (sec) 110° C. [5, 9] [s] | t1/2 (sec) 120° C. [5, 10] [s] | t1/2 (sec) 110° C. [5] [s] | t1/2 (sec) 120° C. [5] [s] | also measured |
| --- | --- | --- | --- | --- | --- | --- | --- | --- | --- |
| O=C(O)c1c(O)cc(O)cc1O [2,4,6-dihydroxy benzoic acid] | 97 | 26 | 1.7 | 37 | 110 | 50 |  |  |  |
| O=C(O)c1ccc(O)cc1O [2,4-dihydroxy benzoic acid] | 99 | 47 | 3.2 | 35 | 95 | 45 |  |  |  |
| O=C(O)c1cc(O)ccc1O [2,5-dihydroxy benzoic acid] | 103 |  | 3 | 22 |  |  | 85 | 48 |  |
| O=C(O)c1cc([N+](=O)[O-])ccc1Cl [2-chloro-5-nitrobenzoic acid] | 108 | 29 |  | 52 | 65 | 40 |  |  | pKH.sbsb.2O ([3]; water): 2.2 |
| O=C(O)c1cc([N+](=O)[O-])cc([N+](=O)[O-])c1 [3,5-dinitrobenzoic acid] | 102 | 38 | 2.8 | 44 | 85 | 45 |  |  |  |
| O=S(=O)(O)c1ccccc1 [Sodium benzene sulphonate, reference compound] |  |  |  |  |  |  |  |  | Dissociation Constant ([3]; water): 2 × 10^-1; Tn [6]: 146 °C and 141.5 °C |
| O=C(O)c1cccc(Cl)c1 [meta-chlorobenzoic acid] | 107 | 47 | 3.8 | 31 |  |  | 63 | 40 |  |
| O=C(O)c1cccc([N+](=O)[O-])c1 [meta-nitrobenzoic acid] | 106 | 30 |  | 20 |  |  | 65 | 45 | pKH.sbsb.2O ([3]; water): 2.2 |
| O=C(O)c1cccc(O)c1 [metra-hydroxy benzoic acid] | 91 | 54 | 3.9 | 86 | 165 | 55 |  |  |  |
| O=C(O)c1ccc(F)cc1 [para fluorobenzoic acid] | 104 | 50 | 4.1 | 60 | 70 | 38 |  |  |  |
| O=C(O)c1ccc([N+](=O)[O-])cc1 [para-nitrobenzoic acid] | 102 | 46 |  | 79 | 75 | 54 |  |  | pKH.sbsb.2O ([3]; water): 3.4 |
| O=C(O)c1ccc(Oc2ccccc2)cc1 [para-oxyphenylbenzoic acid] | 105 | 47 | 3.5 | 40 |  |  | 73 | 38 |  |
| O=C(O)c1ccccc1 [sodium benzoate, reference compound] | 99 |  |  | 88 |  |  | 90 | 45 | % of carboxylate end group [7]: 9.6%; End Groups --COOH [7]: 44 moles × 10^-6 g^-1; End Groups --OH [7]: 54 moles × 10^-6 g^-1; End Groups Carboxylate [7]: 13 moles × 10^-6 g^-1; End Groups Total from solution I.V. [7]: 136 moles × 10^-6 g^-1; δ × pKH.sbsb.2O [2]: 55; Tn ([6]; 1% salt on PET I.V. 0.73 from solution, time in press 30 sec at 280 °C): 115.5 °C; Tn ([6]; 1% salt on PET I.V. 0.73 from solution, time in press 60 sec at 280 °C): 117 °C; Tn(composition)-Tn(polyester) [6]: 27 °C |
| CC(C)(C)c1ccc(C(=O)[O-])cc1.[Na+] [sodium para-tert-butylbenzoate, reference compound] | 92.5 | 62 |  | 109 |  |  | 150 | 55 | % of carboxylate end group [7]: 2.5%; End Groups --COOH [7]: 83 moles × 10^-6 g^-1; End Groups --OH [7]: 56 moles × 10^-6 g^-1; End Groups Carboxylate [7]: 4 moles × 10^-6 g^-1; End Groups Total from solution I.V. [7]: 157 moles × 10^-6 g^-1; Tn(composition)-Tn(polyester) [6]: 19 °C |
